The subject of one experiment is Leptosphaeria nodorum. As to the kind of experiment: Activity against wheat leafspot (LN). The experiment is classed as in vivo. Conditions: direct therapeutic foliar spray, 600 ppm, 6-8 days. An outline of the steps:
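Wheat cv Norman at single-leaf stage spray-inoculated with 1.5×10^6 conidia/ml, held 24 h at high humidity, then sprayed therapeutically with test compound at 600 ppm. Kept 6-8 days at 22° C, 70% humidity; lesion density per leaf rated against untreated or diluent-sprayed controls.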

In experiment [1] the test system is Pseudocercosporella herpotrichoides. Description: Activity against wheat eyespot in-vitro (PHI). Format: cell-based. As to conditions: 10 ppm, 10 days, 20° C., mycelial growth. The essentials:
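P. herpotrichoides mycelial fragments (5×10^4/ml) grown in half-strength PDB with compound at 10 ppm final, added from acetone. Incubated 10 days at 20 °C; mycelial growth rated against untreated or diluent controls.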

The subject of another experiment is Venturia inaequalis. Description: Activity against apple scab in-vitro (VII). The experiment is classed as cell-based. As to conditions: 10 ppm, 10 days, 20° C., mycelial growth. The essentials: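 Compound in acetone was tested at 10 ppm final in half-strength Potato Dextrose Broth inoculated with V. inaequalis mycelial fragments and spores at 5×10^4 propagules/ml. After 10 days at 20° C, mycelial growth was rated against untreated or diluent controls.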

Experiment [2] relates to Erysiphe graminis f.sp. hordei. Description: Activity against barley powdery mildew, direct therapeutic (EGT). The experiment is classed as in vivo. Conditions: direct therapeutic foliar spray, 600 ppm, up to 7 days. An outline of the steps:
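Barley seedlings (cv. Golden Promise, single-leaf stage) were dusted with mildew conidia one day before a therapeutic foliar spray of 600 ppm compound. Plants were kept at 18 °C and 40% humidity for up to 7 days, and sporulating leaf area was rated against untreated or diluent-sprayed controls.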

In another experiment the test system is Rhizoctonia solani. Description: Activity against Rhizoctonia in-vitro (RSI). The experiment is classed as cell-based. Conditions: 10 ppm, 10 days, 20° C., mycelial growth. The essentials:
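R. solani mycelial fragments (5×10^4/ml) in half-strength Potato Dextrose Broth with compound added from acetone to 10 ppm final. Mycelial growth assessed after 10 days at 20° C, rated against untreated or diluent control.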

Experiment [3] relates to Erysiphe graminis f.sp. hordei. As to the kind of experiment: Direct protectant activity against barley powdery mildew (EGP). Format: in vivo. Conditions: direct protectant foliar spray, 8 days. An outline of the steps:
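Barley seedlings (cv Golden Promise, single-leaf stage) were foliar-sprayed, held 24 h at 18 °C/40% RH, then dusted with mildew conidia. After 8 days at 18 °C/40% RH, sporulating leaf area was scored as a rating against untreated or diluent-sprayed controls.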

Another experiment concerns Botrytis cinerea. As to the kind of experiment: Direct protectant activity against broad bean grey mould (BCB). Format: in vivo. Conditions: direct protectant foliar spray, 600 ppm, 4 days. The essentials: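 Broad bean plants (cv The Sutton, two leaf pairs) sprayed on upper leaf surfaces at 600 ppm, then inoculated 24 h later with 10^6 conidia/ml. Kept 4 days at 22 °C, high humidity; disease control rated from % leaf area with lesions against untreated or diluent controls.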

Another experiment deals with Phytophthora infestans. Format: in vivo. As to conditions: tomato, direct protectant foliar spray.
In another experiment the test system is Alternaria solani. As to the kind of experiment: Activity against tomato early blight (AS). The experiment is classed as in vivo. As to conditions: Table VI; tomato seedlings, contact prophylactic foliar spray, 4 days. The essentials: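 Foliar contact prophylactic spray on tomato seedlings (cv Outdoor Girl, second true leaf expanded) in acetone/water 50:50 with 0.04% Tween 20; 24 h at 20° C, 40% R.H., then inoculation with 10^4 spores/ml A. solani conidia. Kept moist at 21° C; lesion cover rated 4 days post-inoculation against untreated or diluent-sprayed controls.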

A further experiment has as its system Plasmopara viticola. Description: Antisporulant activity against vine downy mildew (PVA). Format: in vivo. Conditions: vine leaves, antisporulant foliar spray, 600 ppm, 750 l/ha. The essentials:
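Cabernet Sauvignon vines (~8 cm) inoculated on lower leaf surfaces with 5×10^4 zoosporangia/ml, held 24 h at 21° C high humidity then 24 h glasshouse. Infected leaves sprayed underside with 600 ppm compound in 1:1 water/acetone, 0.04% Tween 20, 750 l/ha; 96 h glasshouse, 24 h humidity. Sporulating leaf area rated versus control.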

The next experiment has as its system Pyricularia oryzae. The experiment is classed as in vivo. Conditions: rice seedlings, direct therapeutic foliar spray, 600 ppm, 4-5 days.

For the compound `CCCCCCN(C)C1COC2(CCCCC2)C1` (stereo not shown) [Compound 59], the “disease control rating LN” value with Leptosphaeria nodorum is reported as 0 (less than 50% disease control). In [1], the “disease control rating PHI” value is 0 (less than 50% disease control). In addition, in the experiment on Venturia inaequalis, the “disease control rating VII” value was 0 (less than 50% disease control). Moreover, the “disease control rating EGT” value in experiment [2] is 2 (greater than 80% disease control). In the experiment on Rhizoctonia solani, the “disease control rating RSI” value was 0 (less than 50% disease control). The “disease control rating EGP” value in [3] is listed as 2 (greater than 80% disease control). Besides, in the experiment on Botrytis cinerea, the “disease control rating BCB” value is listed as 0 (less than 50% disease control). Besides, the “disease control rating PIP” value in the experiment on Phytophthora infestans was 0 (less than 50% disease control). Further, the “disease control rating AS” value in the experiment on Alternaria solani is listed as 0 (less than 50% disease control). Moreover, the “disease control rating PVA” value in the experiment on Plasmopara viticola was 0 (less than 50% disease control). Also, the “disease control rating PO” value in the experiment on Pyricularia oryzae was 0 (less than 50% disease control).

As for `CCCCCCN(C)C1COC2(CCC(C(C)(C)CC)CC2)C1` (stereo not shown) [Compound 60], the “disease control rating LN” value with Leptosphaeria nodorum is given as 1 (about 50-80% disease control). Besides, the “disease control rating PHI” value in [1] was 0 (less than 50% disease control). Also, the “disease control rating VII” value with Venturia inaequalis was 1 (about 50-80% disease control). Besides, in [2], the “disease control rating EGT” value is recorded as 2 (greater than 80% disease control). For the same compound, in the experiment on Rhizoctonia solani, the “disease control rating RSI” value is recorded as 2 (greater than 80% disease control). Further, in [3], the “disease control rating EGP” value is 2 (greater than 80% disease control). Moreover, the “disease control rating BCB” value in the experiment on Botrytis cinerea was 0 (less than 50% disease control). The “disease control rating PIP” value in the experiment with Phytophthora infestans is given as 0 (less than 50% disease control). In addition, the “disease control rating AS” value with Alternaria solani is 0 (less than 50% disease control). Besides, the “disease control rating PVA” value with Plasmopara viticola is on record as 0 (less than 50% disease control). Further, the “disease control rating PO” value with Pyricularia oryzae is given as 0 (less than 50% disease control).

For the compound `CCCCCCN(C)C1COC2(CCC(c3ccccc3)CC2)C1` (stereo not shown) [Compound 61], in the experiment on Leptosphaeria nodorum, the “disease control rating LN” value is given as 1 (about 50-80% disease control). Further, the “disease control rating PHI” value in experiment [1] is given as 2 (greater than 80% disease control). The “disease control rating VII” value in the experiment with Venturia inaequalis is 1 (about 50-80% disease control). In addition, in experiment [2], the “disease control rating EGT” value is listed as 2 (greater than 80% disease control). The “disease control rating RSI” value with Rhizoctonia solani was 0 (less than 50% disease control). Further, the “disease control rating EGP” value in experiment [3] was 2 (greater than 80% disease control). Moreover, in the experiment with Botrytis cinerea, the “disease control rating BCB” value is given as 0 (less than 50% disease control). In addition, the “disease control rating PIP” value with Phytophthora infestans was 0 (less than 50% disease control). The “disease control rating AS” value with Alternaria solani is reported as 0 (less than 50% disease control). Moreover, the “disease control rating PVA” value in the experiment on Plasmopara viticola was 0 (less than 50% disease control). Also, in the experiment with Pyricularia oryzae, the “disease control rating PO” value is reported as 0 (less than 50% disease control).

For the compound `CCCNC1COC2(CCC(C(C)(C)C)CC2)C1` (stereo not shown) [Compound 62], the “disease control rating LN” value in the experiment on Leptosphaeria nodorum is recorded as 0 (less than 50% disease control). The “disease control rating PHI” value in experiment [1] is 0 (less than 50% disease control). Also, the “disease control rating VII” value in the experiment with Venturia inaequalis is recorded as 0 (less than 50% disease control). In addition, the “disease control rating EGT” value in experiment [2] is on record as 2 (greater than 80% disease control). In addition, in the experiment with Rhizoctonia solani, the “disease control rating RSI” value was 0 (less than 50% disease control). The “disease control rating EGP” value in experiment [3] is recorded as 2 (greater than 80% disease control). For the same compound, the “disease control rating BCB” value in the experiment with Botrytis cinerea is 1 (about 50-80% disease control). For the same compound, in the experiment with Phytophthora infestans, the “disease control rating PIP” value was 0 (less than 50% disease control). Also, in the experiment with Alternaria solani, the “disease control rating AS” value is reported as 0 (less than 50% disease control). Besides, the “disease control rating PVA” value in the experiment on Plasmopara viticola was 0 (less than 50% disease control). The “disease control rating PO” value in the experiment on Pyricularia oryzae is listed as 0 (less than 50% disease control).

On to `CC(C)NC1COC2(CCC(C(C)(C)C)CC2)C1` (stereo not shown) [Compound 63], for which, in the experiment with Leptosphaeria nodorum, the “disease control rating LN” value is 0 (less than 50% disease control). Moreover, the “disease control rating PHI” value in experiment [1] is 0 (less than 50% disease control). Further, the “disease control rating VII” value with Venturia inaequalis is 0 (less than 50% disease control). In experiment [2], the “disease control rating EGT” value is 2 (greater than 80% disease control). The “disease control rating RSI” value with Rhizoctonia solani was 0 (less than 50% disease control). For the same compound, the “disease control rating EGP” value in experiment [3] is recorded as 2 (greater than 80% disease control). In addition, the “disease control rating BCB” value in the experiment on Botrytis cinerea is on record as 0 (less than 50% disease control). For the same compound, in the experiment with Phytophthora infestans, the “disease control rating PIP” value was 0 (less than 50% disease control). Also, in the experiment with Alternaria solani, the “disease control rating AS” value is reported as 0 (less than 50% disease control). In the experiment on Plasmopara viticola, the “disease control rating PVA” value is 0 (less than 50% disease control). The “disease control rating PO” value with Pyricularia oryzae is recorded as 0 (less than 50% disease control).

As for `CCCCNC1COC2(CCC(C(C)(C)C)CC2)C1` (stereo not shown) [Compound 64], the “disease control rating LN” value in the experiment on Leptosphaeria nodorum is reported as 0 (less than 50% disease control). For the same compound, the “disease control rating PHI” value in experiment [1] is given as 0 (less than 50% disease control). The “disease control rating VII” value in the experiment on Venturia inaequalis is recorded as 0 (less than 50% disease control). In [2], the “disease control rating EGT” value was 2 (greater than 80% disease control). Also, in the experiment on Rhizoctonia solani, the “disease control rating RSI” value is listed as 0 (less than 50% disease control). Besides, the “disease control rating EGP” value in [3] is reported as 2 (greater than 80% disease control). For the same compound, in the experiment on Botrytis cinerea, the “disease control rating BCB” value is 2 (greater than 80% disease control). Also, in the experiment on Phytophthora infestans, the “disease control rating PIP” value is 2 (greater than 80% disease control). Also, in the experiment on Alternaria solani, the “disease control rating AS” value was 0 (less than 50% disease control). In the experiment on Plasmopara viticola, the “disease control rating PVA” value is 0 (less than 50% disease control). In addition, in the experiment on Pyricularia oryzae, the “disease control rating PO” value was 0 (less than 50% disease control).

On to `CCC(C)NC1COC2(CCC(C(C)(C)C)CC2)C1` (stereo not shown) [Compound 65], for which the “disease control rating LN” value in the experiment with Leptosphaeria nodorum was 0 (less than 50% disease control). Further, in [1], the “disease control rating PHI” value is on record as 0 (less than 50% disease control). Also, in the experiment with Venturia inaequalis, the “disease control rating VII” value is listed as 0 (less than 50% disease control). In experiment [2], the “disease control rating EGT” value is reported as 2 (greater than 80% disease control). Besides, the “disease control rating RSI” value in the experiment on Rhizoctonia solani was 0 (less than 50% disease control). Moreover, the “disease control rating EGP” value in [3] is given as 2 (greater than 80% disease control). The “disease control rating BCB” value in the experiment with Botrytis cinerea is 2 (greater than 80% disease control). For the same compound, the “disease control rating PIP” value in the experiment on Phytophthora infestans was 0 (less than 50% disease control). The “disease control rating AS” value in the experiment on Alternaria solani was 0 (less than 50% disease control). Also, the “disease control rating PVA” value in the experiment with Plasmopara viticola is 0 (less than 50% disease control). Moreover, the “disease control rating PO” value in the experiment with Pyricularia oryzae is listed as 0 (less than 50% disease control).

In the case of `CC(C)CNC1COC2(CCC(C(C)(C)C)CC2)C1` (stereo not shown) [Compound 66], the “disease control rating LN” value with Leptosphaeria nodorum was 0 (less than 50% disease control). In [1], the “disease control rating PHI” value is reported as 0 (less than 50% disease control). In the experiment on Venturia inaequalis, the “disease control rating VII” value is listed as 0 (less than 50% disease control). In experiment [2], the “disease control rating EGT” value is 2 (greater than 80% disease control). The “disease control rating RSI” value in the experiment on Rhizoctonia solani was 0 (less than 50% disease control). Also, the “disease control rating EGP” value in [3] is listed as 2 (greater than 80% disease control). Besides, in the experiment on Botrytis cinerea, the “disease control rating BCB” value is listed as 2 (greater than 80% disease control). Moreover, the “disease control rating PIP” value with Phytophthora infestans is reported as 0 (less than 50% disease control). Also, the “disease control rating AS” value with Alternaria solani is 0 (less than 50% disease control). Further, the “disease control rating PVA” value in the experiment on Plasmopara viticola was 0 (less than 50% disease control). Also, in the experiment with Pyricularia oryzae, the “disease control rating PO” value is 0 (less than 50% disease control).

For the origin of these results see patent US5591741A, “Fungicidal spiroheterocyclic derivatives” (American Cyanamid Company, priority 1993, dated 1997).
